Measurements published in patent US5446129A, “Peptide or its salt for autoimmune hyperthyroidism containing it” (Ishihara Sangyo Kaisha Ltd., priority 1990, dated 1995).
No end group written: not given here.

Tested on: production of cAMP under stimulation by TSAb
Experiment: Test Example 2: cAMP produced under stimulation by TSAb in FRTL5 cells (96-well)
Assay type: cell-based, rat
Details: TSAb positive IgG
Experimental: Using rat established thyroid cell line FRTL5, the influence of the peptide over the production of cAMP under stimulation by TSAb, was examined in accordance with the method of S. Kosugi et al. (Endocrinology, Vol. 125, No. 1, p 410 (1989)). The method will be described as follows.
Preincubated FRTL5 cells (1.5×10^5 cells/ml) were transferred to a multiplate having 96 wells in an amount of 100 μl per well and incubated in a CO2 incubator for 6 days while changing the medium (having TSH excluded). Then, the medium was removed and the cells were rinsed and subjected to the test. 40 μl of a solution of IgG from TSAb positive serum and 10 μl of a solution containing 0, 15 or 30 μg of the desired peptide were reacted in a test tube at 4° C. for 20 hours. To this reaction solution, 5 μl of a 0.5 mM solution of 3-isobutyl-1-methylxanthine was added, and 50 μl of this reaction solution was added to the previously prepared FRTL5 cells, followed by incubation at 37° C. for two hours.
On the other hand, as control, a test was conducted in the same manner using a normal serum.
With respect to each sample, the quantitative analysis of cAMP produced under stimulation by TSAb was conducted by means of a commercially available cAMP-radioimmunoassay kit (1-VQ12, manufactured by Eiken Kagaku Corporation).

EQEDEIIGFG [Peptide No. 8]
Inhibition rate (15 μg/well peptide): 54% | cAMP (15 μg/well peptide): 3.2 nM | Inhibition rate (30 μg/well peptide): 76% | cAMP (30 μg/well peptide): 1.8 nM
